For 3 compounds, IC50 and inhibition results are on record in publication PMC4900628, “Critical Evaluation of P2X7 Receptor Antagonists in Selected Seizure Models” (PLoS ONE, 2016).

A value given as a limit tells only on which side of the number the result lay.

For one experiment, the target named is T1, mouse P2X7R (Mus musculus, UniProt Q9Z1M0).
T1 construct: expressed in transfected cells
T1 sequence (Q9Z1M0 1-595): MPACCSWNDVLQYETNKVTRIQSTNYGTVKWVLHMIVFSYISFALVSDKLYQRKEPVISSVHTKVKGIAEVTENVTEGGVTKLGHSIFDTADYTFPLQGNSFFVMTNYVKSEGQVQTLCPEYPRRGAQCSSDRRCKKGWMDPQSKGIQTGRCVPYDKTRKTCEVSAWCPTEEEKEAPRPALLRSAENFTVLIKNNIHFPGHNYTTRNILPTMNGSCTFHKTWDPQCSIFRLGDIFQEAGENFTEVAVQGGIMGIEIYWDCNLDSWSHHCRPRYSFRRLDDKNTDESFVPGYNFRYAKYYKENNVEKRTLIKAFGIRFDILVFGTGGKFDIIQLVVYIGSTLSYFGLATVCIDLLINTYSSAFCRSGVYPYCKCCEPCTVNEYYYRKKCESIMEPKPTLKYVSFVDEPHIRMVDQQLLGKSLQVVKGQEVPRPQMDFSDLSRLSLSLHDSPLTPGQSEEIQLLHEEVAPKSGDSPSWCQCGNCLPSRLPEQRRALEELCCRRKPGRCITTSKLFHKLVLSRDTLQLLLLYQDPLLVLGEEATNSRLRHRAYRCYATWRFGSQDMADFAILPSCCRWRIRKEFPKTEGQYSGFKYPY
In words: fluorometric Ca2+ assay (ATP-induced [Ca2+]i response) in HEKmP2X7 cells. The experiment is classed as cell-based. To be noted: fluo-4, 1 mM ATP, read-out: Potency IC50 ± SEM, Mouse P2X7R. The protocol:
(§1) Cells were grown in a humidified incubator at 37°C in an atmosphere supplemented with 5% CO2. […] HEK293mP2X7 were cultured in DMEM under similar conditions as described above, but containing 100 μg/ml zeocin (Invitrogen). […] Expression of the transgene was induced by supplementing the medium with 1 μg/ml tetracycline (Sigma-Aldrich, Taufkirchen, Germany) 24 h prior to the experiments. All fluorometric Ca^2+ assays in cell suspensions were performed in 384-microwell plates (Corning, No. 3655, Lowell, MA, USA) with a fluorescence-imaging microplate reader (POLARstar Omega, BMG Labtech, Offenburg, Germany) (for details, see [61, 68]). […] Microwell plates were repetitively scanned every 16 s in the fast scanning mode of the device. […] Data were normalized to the baseline values before ATP application (F/F0). […] ATP-solution was freshly prepared in Mg^2+-free HBS solution and adjusted to pH 7.4. Aliquots of stock solutions were stored at -20°C and freshly diluted with the appropriate HBS solution. […] Results are expressed as mean ± SEM. […] In the PTZ-T, the number of animals in the group with clonic seizures and the latency time were analysed using Fisher's exact probability test and the Mann-Whitney rank sum test, respectively. For multiple comparisons of the latency time a one-way ANOVA with the Holm-Sidak post hoc test was used. The influence of AFC on the plasma and brain concentrations of the antiepileptic drugs was statistical compared using the same procedure. In the PTZ-kindling model, the mean seizure stage within a group was calculated in relation to the number of PTZ-injections. Statistical comparison between vehicle- and compound-treated groups in this model was performed with two-way repeated measures ANOVA, followed by the Holm-Sidak post hoc test. […] In fully kindled rats, the calculated mean seizure stage within a group after vehicle- and compound-treatment were compared using a paired t-test. P < 0.05 was the accepted minimum level of significance.

The target of another experiment is T2, rat P2X7R (Rattus norvegicus, UniProt Q64663).
T2 construct: expressed in transfected cells; host or cells: HEK293 Flp-In T-REx (HEKrP2X7), tetracycline-induced
T2 sequence (Q64663 1-595): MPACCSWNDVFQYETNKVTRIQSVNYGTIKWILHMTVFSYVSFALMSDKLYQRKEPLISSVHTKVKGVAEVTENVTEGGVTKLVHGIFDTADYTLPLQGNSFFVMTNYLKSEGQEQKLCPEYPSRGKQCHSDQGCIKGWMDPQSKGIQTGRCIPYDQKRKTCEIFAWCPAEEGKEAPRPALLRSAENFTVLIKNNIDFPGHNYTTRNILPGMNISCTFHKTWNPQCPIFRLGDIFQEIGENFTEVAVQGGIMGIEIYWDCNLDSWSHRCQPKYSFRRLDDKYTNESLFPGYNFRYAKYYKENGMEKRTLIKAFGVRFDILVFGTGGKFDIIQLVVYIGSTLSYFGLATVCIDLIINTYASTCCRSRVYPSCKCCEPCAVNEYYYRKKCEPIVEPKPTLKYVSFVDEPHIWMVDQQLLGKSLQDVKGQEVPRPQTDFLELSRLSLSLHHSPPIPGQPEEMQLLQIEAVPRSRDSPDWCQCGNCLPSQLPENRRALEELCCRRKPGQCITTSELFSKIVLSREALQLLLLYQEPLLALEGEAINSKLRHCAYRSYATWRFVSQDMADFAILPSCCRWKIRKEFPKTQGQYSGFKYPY
In words: fluorometric Ca2+ assay (ATP-induced [Ca2+]i response) in HEKrP2X7 cells. As to conditions: for IC50: HEKrP2X7 cells, fluo-4, 1 mM ATP, read-out: Potency IC50 ± SEM, Rat P2X7R. Type of experiment: cell-based. On the procedure: as §1

With `CCOc1ccc(Nc2ccc(/C(=C3C=C/C(=[N+](/CC)Cc4cccc(S(=O)(=O)[O-])c4)C=C/3C)c3ccc(N(CC)Cc4cccc(S(=O)(=O)O)c4)cc3C)cc2)cc1` [Brilliant Blue G], the figures for the IC50 at mouse P2X7R and at rat P2X7R were 530 ± 150 nM and 50 ± 10 nM, respectively. In addition, the inhibition at 0.02 µM at rat P2X7R (read-out: inhibition of P2X7R / ATP-induced Ca2+ response corresponding to the achieved rat brain concentration) was ~30%.
In the case of `O=C(NCC1(N2CCN(c3ccccc3)CC2)CCOCC1)c1cccnc1Sc1ccccc1` [JNJ-47965567, N-[[4-(4-phenyl-piperazin-1-yl)tetrahydro-2H-pyran-4-yl]-methyl]-2-(phenyl-thio) nicotinamide], the IC50 on mouse P2X7R amounted to 10 ± 1 nM; on rat P2X7R, 3 ± 0.1 nM.
The matching figures for `Cc1c(S(=O)(=O)[O-])oc2c1C(=O)C(=O)c1c-2ccc2c1CCCC2(C)C.[Na+]` [Tanshinone TIIAS, tanshinone IIS sulfonic sodium]: ≥ 6000 nM and ≥ 30000 nM.

As a reminder, the IC50 is the midpoint of a concentration-inhibition curve.
